The text below walks through data of PubChem BioAssay AID1996.

Structures are written as SMILES. In brackets after ≈: the same amount, converted by molar mass. Bounds are passed on as bounds.

For the data set the following is noted: buffer; pH 7.4; 200.0 µM.
Regarding `COc1ccccc1CNCc1ccc(OC)c2ccccc12`, the kinetic solubility is 33.7 µg/mL (≈ 110 µM).
In the case of `Cc1ccc(NS(=O)(=O)c2ccc3c(c2)n(C)c(=O)n3C)c(C)c1`, the solubility (kinetic) came out at 17.9 µg/mL (≈ 51.8 µM).
Then `CC1CCc2c(sc(NC(=O)COC(=O)C3CCCO3)c2C#N)C1` (configuration not stated), with 34.2 µg/mL (≈ 98.2 µM); and `Cc1nc2sc(C(=O)c3ccccc3)c(N)c2c(C)c1C`, with under 0.3 µg/mL.
Then `COc1cc2c(cc1OC)CN(Cc1ccccc1)CC2`, with 35.6 µg/mL (≈ 126 µM).
In the case of `CN(Cc1c(F)cccc1Cl)C(=O)c1cc2ccccc2o1` it was 12.3 µg/mL (≈ 38.7 µM); in that of `O=C(NC1CCCCC1)N1CCc2ccccc2C1`, over 38.8 µg/mL.
For `N#CCOC(=O)c1c2c(nc3ccccc13)CCC2`, the kinetic solubility was 30.1 µg/mL (≈ 119 µM).
In the case of `CCCCNS(=O)(=O)c1ccc(NC(=O)c2cccs2)cc1` it was 1 µg/mL (≈ 2.95 µM); in that of `CCOC(=O)c1c(NC(=O)Nc2ccc(C)cc2)sc2c1CCN(C)C2`, 1.5 µg/mL (≈ 4.02 µM).
Then `O=C(C1=C(O)C(=O)N(Cc2cccnc2)C1c1cccc(Oc2ccccc2)c1)c1ccco1` (configuration not stated), with over 67.9 µg/mL; and `CCC(NC(=S)NCc1ccc(F)cc1)c1ccc(C(C)C)cc1` (configuration not stated), with under 0.4 µg/mL; and `O=C(O)CCC(=O)Nc1ccc(Br)cc1C(=O)c1ccccc1Cl`, with over 61.6 µg/mL.
Then `COc1c(Cl)cc(C(=O)NCc2ccco2)cc1Cl`, with 40.2 µg/mL (≈ 134 µM).
`Cc1ccc(S(=O)(=O)N2CCOCC2)s1` gave a solubility (kinetic) of over 37.1 µg/mL.
Then `COC(=O)c1cn(CC(=O)Nc2ccc(OC)cc2)c2ccccc12`, with under 0.4 µg/mL; and `COC(=O)c1ccc(NC(=O)C(=O)c2cccn2C)cc1`, with 3.2 µg/mL (≈ 11.2 µM); and `COCC(=O)Nc1ccc(S(=O)(=O)Nc2nccs2)cc1`, with 47 µg/mL (≈ 144 µM).
Then `O=C(Nc1ccccc1OC(F)(F)F)c1ccc([N+](=O)[O-])cc1`, with 6.8 µg/mL (≈ 20.8 µM); and `CN1CC(C(=O)c2ccc(F)cc2)C(c2ccc(F)cc2)C1` (configuration not stated), with over 45.2 µg/mL.
Then `COC(=O)c1cc(C)sc1NC(=O)CSc1ncccn1`, with 44 µg/mL (≈ 136 µM); and `C=CCn1c(SCc2ccccc2)nc2c1c(=O)[nH]c(=O)n2C`, with 25 µg/mL (≈ 76.1 µM); and `Cc1cc(C(=O)Nc2sccc2C(N)=O)c(C)o1`, with 27.1 µg/mL (≈ 103 µM).
In turn, `Nc1nc(NCc2ccco2)nc(N2CCCC2)c1[N+](=O)[O-]` came in with a kinetic solubility of over 45.6 µg/mL.
In the case of `COc1ccc(CCC(=O)OCC(=O)Nc2sccc2C#N)cc1` it was 22.9 µg/mL (≈ 66.5 µM).
`Cc1cc(C(=O)COC(=O)/C=C/c2ccc(F)cc2)c(C)n1C` returned a kinetic solubility of 6.2 µg/mL (≈ 19.7 µM).
For `Cc1ccc(N2C(=O)N(CC(=O)Nc3cc(C)cc(C)c3)C(=O)C2C)cc1` (configuration not stated), the kinetic solubility was 7.5 µg/mL (≈ 20.5 µM).
In the case of `Cc1[nH]c2ccccc2c1CCNCc1ccco1.Cl` it was over 43.6 µg/mL; in that of `Cc1cc(NC(=O)CSc2nc3c(cc2C#N)CCCCC3)no1`, under 0.2 µg/mL.
In the case of `CCCCN(CC)C(=O)c1cc2c(=O)[nH]c3ccc(C)cc3c2s1` it was 0.5 µg/mL (≈ 1.46 µM); in that of `Cc1nc2sc(C(=O)OC(C)C)c(N)c2c(C)c1C`, under 0.3 µg/mL.
Then `Cn1c(SCC(=O)Nc2ccccc2[N+](=O)[O-])nnc1C(F)(F)F`, with over 54.2 µg/mL; and `CCc1nnc(NC(=O)c2cc(Cl)ccn2)s1`, with over 40.3 µg/mL.
In the case of `O=C(CN1CCOCC1)Nc1ccc(Cl)cn1`, the kinetic solubility is over 38.4 µg/mL.
Then `C/C(=N\NC(=O)c1cccc([N+](=O)[O-])c1)c1ccncc1`, with over 42.6 µg/mL.
In the case of `COC(=O)c1ccc(CN2CCN(CC(C)C)C(CCO)C2)cc1` (configuration not stated), the solubility (kinetic) was over 50.2 µg/mL.
Take `CC1Cn2c(nc3sc4c(c3c2=O)CC(C)(C)OC4)N1CCO` (configuration not stated): the kinetic solubility was over 50.3 µg/mL.
Then `Cc1ccccc1NC(=S)Nc1cccc2cnccc12`, with 34.2 µg/mL (≈ 117 µM).
For `CN(C)c1ccncc1C(=O)Nc1ccc(F)cc1F`, the kinetic solubility was over 41.6 µg/mL.
In the case of `N#Cc1cccc(Nc2c3c(nc4ccccc24)CCC3)c1` it was 8.4 µg/mL (≈ 29.4 µM); in that of `Cc1ccc(NC(=O)C2CCCN2C(=O)c2cccs2)c(C)c1` (configuration not stated), 24 µg/mL (≈ 73.1 µM); in that of `COc1ccc(OC)c2c(=O)cc(C(=O)O)[nH]c12`, 14.6 µg/mL (≈ 58.6 µM).
`CC(C)(C)c1ccc(/C=C2/SC(N3CCCC3)=NC2=O)cc1` yielded a solubility (kinetic) of 15.4 µg/mL (≈ 49 µM).
Take `Cc1cc(N2CCCC2)ccc1C=C(C#N)C#N`: the solubility (kinetic) is 0.5 µg/mL (≈ 2.11 µM).
In the case of `O=C1CN(C(=O)c2ccccc2Cl)c2ccccc2N1`, the solubility (kinetic) is over 43 µg/mL.
Then `COC(=O)Cc1ccc(NC(=S)N2CCCCC2C)cc1` (configuration not stated), with over 46 µg/mL.
Then `CCOC(=O)C1CCN(Cc2ccc3ccccc3c2)CC1`, with 25.9 µg/mL (≈ 87.1 µM); and `N#CCSc1ncnc2ccccc12`, with 28.1 µg/mL (≈ 140 µM).
Then `Cc1ccc(C(=O)NCc2ccc3c(c2)CCO3)cc1C`, with 31.2 µg/mL (≈ 111 µM).
With `COc1ccc(CCNC(=O)c2ccccc2C(=O)NCCc2ccc(OC)cc2)cc1`, the solubility (kinetic) was 2.2 µg/mL (≈ 5.09 µM).
Then `CCOc1ccccc1Nc1cc(C)nc2ccc(C)cc12`, with over 43.9 µg/mL; and `Cc1cc2oc(=O)cc(CN(C)Cc3ccccc3Cl)c2cc1C`, with under 0.7 µg/mL.

As usually defined, the kinetic solubility is solubility judged after dilution from a stock solution rather than from solid.
